The data set is described as follows: recombinant barcode read abundance after kanamycin selection (control-corrected) (log10(CPM+1)); higher = more efficient recombination; sequences stand for … in AGTGCAGAGAAAATCGGCCAGTTTTCTCTGCCTGCAGTCCGCATGCCGT…AGATTTATGCAGCGGACTGCCTTTCTCCCAAAGTGATAAACCGGACAGTATCATGGACCGGTTTTCCCGGTAATCCGTATTTGCAAGGTTGGTTTCACT; site = the 11-nt target. The method in brief: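 A promoter, a target, a barcode and the first 104 bridge RNA bases under J23119 made up each oligo. Oligos were Gibson-cloned into a vector bearing the other 73 bp and a T7-inducible recombinase, then co-electroporated into E. coli with a donor plasmid and plated in duplicate on chloramphenicol/ampicillin LB agar (control) or chloramphenicol/ampicillin/kanamycin with 0.1 mM IPTG. Recombination efficiency is the averaged, control-corrected counts per million of recombinant-junction barcodes. Reported values are log10(CPM+1).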
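Note: IS621 recombinase and bridge RNA in Escherichia coli cells.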

With “CTGCGTGCTTGGGTTCTAACCTGTTGCCT (site CCGCGTGCTAG)”, the “recombinant barcode read abundance (log10)” value was determined as 0.909.
For the sequence “CTGCGTGCTTGGGTTCTAACCTGTTGCCT (site CGGCGTGCTAG)”, the “recombinant barcode read abundance (log10)” value was 0.176.
Regarding “CTGCGTGCTTGGGTTCTAACCTGTTGCCT (site CTGCGTGCTAG)”, the “recombinant barcode read abundance (log10)” value is 0.83.
To “CTGCTACCTTGGGTTCTAACCTGTTGCCT (site CAGCTACCTAG)” belongs 0.706.
In the case of “CTGCTACCTTGGGTTCTAACCTGTTGCCT (site CCGCTACCTAG)”, the “recombinant barcode read abundance (log10)” value was found to be 0.386.
For “CTGCTACCTTGGGTTCTAACCTGTTGCCT (site CGGCTACCTAG)” the value was 0.0908; for “CTGCTACCTTGGGTTCTAACCTGTTGCCT (site CTGCTACCTAG)”, 1.13.
To “CTGCTAGCTTGGGTTCTAACCTGTTGCAG (site CTGCTAGCTCT)” belongs 1.08; to “CTGCTAGCTTGGGTTCTAACCTGTTGCAG (site GACAGGCCTAC)”, 0.289; to “CTGGAACCTTGGGTTCTAACCTGTTGCGG (site CTAGAAGCTCC)”, 0.
As for “CTGGAACCTTGGGTTCTAACCTGTTGCGG (site CTGGAACCTCC)”, the “recombinant barcode read abundance (log10)” value is 1.25.
As to “CTGGAGTCTTGGGTTCTAACCTGTTGCCT (site CTGGAGTCTAG)”, the “recombinant barcode read abundance (log10)” value amounted to 2.33.
To “CTGGAGTCTTGGGTTCTAACCTGTTGCCT (site CTGGCGTCTAG)” belongs 0.322; to “CTGGAGTCTTGGGTTCTAACCTGTTGCCT (site CTGGGGTCTAG)”, 0.412.
As to “CTGGAGTCTTGGGTTCTAACCTGTTGCCT (site CTGGTGTCTAG)”, the “recombinant barcode read abundance (log10)” value stood at 0.793.
On to “CTGGTATCTTGGGTTCTAACCTGTTGCTT (site CTGGTATCTAA)”, for which the “recombinant barcode read abundance (log10)” value stood at 0.509.
“CTGGTATCTTGGGTTCTAACCTGTTGCTT (site GGCTACCCTTT)”: the “recombinant barcode read abundance (log10)” value stood at 0.0591.
Take “CTGGTGTCTTGGGTTCTAACCTGTTGCCT (site CTGGAGTCTAG)”: the “recombinant barcode read abundance (log10)” value stood at 0.0957.
To “CTGGTGTCTTGGGTTCTAACCTGTTGCCT (site CTGGCGTCTAG)” belongs 0.248.
For the sequence “CTGGTGTCTTGGGTTCTAACCTGTTGCCT (site CTGGGGTCTAG)”, the “recombinant barcode read abundance (log10)” value was determined as 0.0939.
With “CTGGTGTCTTGGGTTCTAACCTGTTGCCT (site CTGGTGTCTAG)”, the “recombinant barcode read abundance (log10)” value came to 2.42.
Regarding “CTGTATACTTGGGTTCTAACCTGTTGCCA (site CTATATACTTG)”, the “recombinant barcode read abundance (log10)” value amounted to 0.113.
To “CTGTATACTTGGGTTCTAACCTGTTGCCA (site CTGTATACTTG)” belongs 0.175; to “CTGTCGCCTTGGGTTCTAACCTGTTGCCT (site CTATCGCCTAG)”, 0.699; to “CTGTCGCCTTGGGTTCTAACCTGTTGCCT (site CTCTCGCCTAG)”, 0.0526.
To “CTGTCGCCTTGGGTTCTAACCTGTTGCCT (site CTGTCGCCTAG)” belongs 0.276; to “CTGTCGCCTTGGGTTCTAACCTGTTGCCT (site CTTTCGCCTAG)”, 0.0305; to “CTGTCTCCTTGGGTTCTAACCTGTTGCCT (site ATGTCTCCTAG)”, 0.221.
Regarding “CTGTCTCCTTGGGTTCTAACCTGTTGCCT (site CTGTCTCCTAG)”, the “recombinant barcode read abundance (log10)” value came out at 1.29.
Take “CTGTCTCCTTGGGTTCTAACCTGTTGCCT (site GTGTCTCCTAG)”: the “recombinant barcode read abundance (log10)” value turned out to be 0.0715.
For “CTGTCTCCTTGGGTTCTAACCTGTTGCCT (site TTGTCTCCTAG)” the value was 0.3; for “CTGTGAACTTGGGTTCTAACCTGTTGCCT (site CAGTGAACTAG)”, 0.128.
Turning to “CTGTGAACTTGGGTTCTAACCTGTTGCCT (site CCGTGAACTAG)”, the “recombinant barcode read abundance (log10)” value came out at 0.133.
For “CTGTGAACTTGGGTTCTAACCTGTTGCCT (site CGGTGAACTAG)” the value was 0.216; for “CTGTGAACTTGGGTTCTAACCTGTTGCCT (site CTGTGAACTAG)”, 0.679.
For “CTGTGCCCTTGGGTTCTAACCTGTTGCCT (site CTGAGCCCTAG)” the value was 0.105; for “CTGTGCCCTTGGGTTCTAACCTGTTGCCT (site CTGCGCCCTAG)”, 0.0771; for “CTGTGCCCTTGGGTTCTAACCTGTTGCCT (site CTGGGCCCTAG)”, 0.0673.
To “CTGTGCCCTTGGGTTCTAACCTGTTGCCT (site CTGTGCCCTAG)” belongs 0.574; to “CTGTTCCCTTGGGTTCTAACCTGTTGCGG (site CTGATCCCTCC)”, 0.291.
With “CTGTTCCCTTGGGTTCTAACCTGTTGCGG (site CTGCTCCCTCC)”, the “recombinant barcode read abundance (log10)” value came out at 0.797.
For “CTGTTCCCTTGGGTTCTAACCTGTTGCGG (site CTGGTCCCTCC)”, the “recombinant barcode read abundance (log10)” value was determined as 0.129.
For “CTGTTCCCTTGGGTTCTAACCTGTTGCGG (site CTGTTCCCTCC)”, the “recombinant barcode read abundance (log10)” value came out at 1.05.
To “CTTACGGCTTGGGTTCTAACCTGTTGCCT (site CTTACAGCTAG)” belongs 0.186.
To “CTTACGGCTTGGGTTCTAACCTGTTGCCT (site CTTACCGCTAG)” belongs 0.196.
As to “CTTACGGCTTGGGTTCTAACCTGTTGCCT (site CTTACGGCTAG)”, the “recombinant barcode read abundance (log10)” value was determined as 0.0569.
With “CTTACGGCTTGGGTTCTAACCTGTTGCCT (site CTTACTGCTAG)”, the “recombinant barcode read abundance (log10)” value was found to be 0.262.
For “CTTCATCCTTGGGTTCTAACCTGTTGCCT (site CTTCAACCTAG)” the value was 0.0199; for “CTTCATCCTTGGGTTCTAACCTGTTGCCT (site CTTCACCCTAG)”, 0.34.
For “CTTCATCCTTGGGTTCTAACCTGTTGCCT (site CTTCAGCCTAG)” the value was 0.0613; for “CTTCATCCTTGGGTTCTAACCTGTTGCCT (site CTTCATCCTAG)”, 0.466.
As to “CTTCGGACTTGGGTTCTAACCTGTTGCTT (site CTTCGGACTAA)”, the “recombinant barcode read abundance (log10)” value worked out at 0.769.
To “CTTCGGACTTGGGTTCTAACCTGTTGCTT (site GAGTCTCCTCC)” belongs 0.133; to “CTTCGGGCTTGGGTTCTAACCTGTTGCAA (site CTTCGGACTTT)”, 0.217; to “CTTCGGGCTTGGGTTCTAACCTGTTGCAA (site CTTCGGGCTTT)”, 0.915.
For “CTTCGTCCTTGGGTTCTAACCTGTTGCGT (site CTTCGTCCTAA)” the value was 0.102.
As to “CTTCGTCCTTGGGTTCTAACCTGTTGCGT (site CTTCGTCCTAC)”, the “recombinant barcode read abundance (log10)” value stood at 1.59.
For “CTTCGTCCTTGGGTTCTAACCTGTTGCGT (site CTTCGTCCTAG)” the value was 0.126.
To “CTTCGTCCTTGGGTTCTAACCTGTTGCGT (site CTTCGTCCTAT)” belongs 0.797; to “CTTGCGACTTGGGTTCTAACCTGTTGCTT (site CTTGCGACTAA)”, 0.391; to “CTTGCGACTTGGGTTCTAACCTGTTGCTT (site TGCATAGCTTG)”, 0.0884.
For “CTTGCTCCTTGGGTTCTAACCTGTTGCAT (site AGACGGACTTG)” the value was 0.0627; for “CTTGCTCCTTGGGTTCTAACCTGTTGCAT (site CTTGCTCCTAT)”, 0.227.
With “CTTTAGTCTTGGGTTCTAACCTGTTGCTA (site AAAGGTCCTCT)”, the “recombinant barcode read abundance (log10)” value worked out at 0.0491.
As for “CTTTAGTCTTGGGTTCTAACCTGTTGCTA (site CTTTAGTCTTA)”, the “recombinant barcode read abundance (log10)” value came out at 0.174.
For “CTTTCACCTTGGGTTCTAACCTGTTGCCT (site CTTTCACCTAG)”, the “recombinant barcode read abundance (log10)” value worked out at 0.547.
For “CTTTCACCTTGGGTTCTAACCTGTTGCCT (site CTTTCGTCTAG)” the value was 0.0614.
In the case of “CTTTCGCCTTGGGTTCTAACCTGTTGCCT (site CTATCGCCTAG)”, the “recombinant barcode read abundance (log10)” value amounted to 0.0688.
In the case of “CTTTCGCCTTGGGTTCTAACCTGTTGCCT (site CTCTCGCCTAG)”, the “recombinant barcode read abundance (log10)” value was 0.102.
“CTTTCGCCTTGGGTTCTAACCTGTTGCCT (site CTGTCGCCTAG)”: the “recombinant barcode read abundance (log10)” value worked out at 0.0968.
Regarding “CTTTCGCCTTGGGTTCTAACCTGTTGCCT (site CTTTCGCCTAG)”, the “recombinant barcode read abundance (log10)” value came out at 0.0534.
For “CTTTGCCCTTGGGTTCTAACCTGTTGCCT (site CATTGCCCTAG)”, the “recombinant barcode read abundance (log10)” value came to 0.179.
“CTTTGCCCTTGGGTTCTAACCTGTTGCCT (site CCTTGCCCTAG)”: the “recombinant barcode read abundance (log10)” value was found to be 0.0734.
As for “CTTTGCCCTTGGGTTCTAACCTGTTGCCT (site CGTTGCCCTAG)”, the “recombinant barcode read abundance (log10)” value was found to be 0.0892.
As for “CTTTGCCCTTGGGTTCTAACCTGTTGCCT (site CTTTGCCCTAG)”, the “recombinant barcode read abundance (log10)” value was 0.687.
To “GAAAGGGCTTGGGTTCTAACCTGTTGCCT (site GAAAAGGCTAG)” belongs 0.183; to “GAAAGGGCTTGGGTTCTAACCTGTTGCCT (site GAAACGGCTAG)”, 0.0842.

Values taken from the supplement of paper PMC11208160.
